Patent US20170189429A1, “Treating Arrhythmia with Mitochondrial-Targeted Antioxidants” (Rhode Island Hospital, priority 2014, published 2017)

Columns and labels:
[1] = system: sodium channel current (INa); assay: Patch clamp peak INa in adult mouse cardiomyocytes treated with antimycin A; format: cell-based
Protocol: FIG. 9A is a bar graph showing that MitoQ restored INa that was decreased by antimycin A. The peak INa at −30 mV in adult mouse cardiomyocytes was decreased in antimycin A (5-10 μM) compared with SCNSA alone. Treatment using MitoQ at 10 nM with a 1-2 hour preincubation time restored INa. The SCNSA group is the untreated group. For patch clamp, MitoQ and antimycin A were also applied to the patch clamp bath solution during the entire time of patching, respectively or together. INa was measured at room temperature. Data shown in FIGS. 9A and 9B were obtained from 3 different mice, and 16-28 cells were used on average in each group.
In addition to MitoTEMP and NAD^+, another mitochondrial-targeted antioxidant, MitoQ, was tested. […] is an antibiotic that induces apoptosis and inhibits the mitochondrial electron transport chain, thereby inducing oxidative stress and generating reactive oxygen species. Because antimycin A is known to generate ROS (for example, increasing superoxide formation), it decreases the sodium channel current (INa). Additionally, antiomycin A causes damage to mitochondrial DNA, lipids, and proteins in cells treated with the antibiotic. […] Mitochondrial ROS production in response to increased antimycin A levels was monitored by MitoSox Red with SCNSA cells and myocytes (FIGS. 9A and 9B). […]

INa = INa in cardiomyopathy of DOCA mice injected with NAD; format: in vivo, mouse; settings: injection 100 mg/kg
Protocol: Reduced INa in cardiomyopathy of DOCA was corrected by injection of NAD (100 mg/kg), which had no effect on the sham group (FIG. 8B).

[2] = system: SCN5A: sodium channel, voltage gated type V alpha subunit; assay: INa in SCN5A cells treated with NADH; format: cell-based
Protocol: FIG. 1A is a graph showing a series of sodium current traces measuring a INa reduction induced by NADH (nicotinamide adenine dinucleotide) (SCN5A+100 μM [NADH]) compared to normal INa (SCN5A), which can be restored by mitoTEMPO (SCN5A+100 μM [NADH]+5 μM [mitoTEMPO]). SCN5A: sodium channel, voltage gated type V alpha subunit
FIG. 1B is a bar graph showing INa reduction induced by NADH (SCN5A+100 μM [NADH]) compared to normal INa (SCN5A), which can be restored by mitoTEMPO (SCN5A+100 μM [NADH]+5 μM [mitoTEMPO]), which is also compared to mitoTEMPO (5 μM [mitoTEMPO]).
The SCNSA group is the untreated cells group, and the others were treated with 100 μmol/L NADH in the absence or presence of NAD from 50 to 1000 μmol/L.
The SCN5A group is the untreated cells group, and the others were treated with 100 μmol/L NADH in the absence or presence of NAD from 50 to 1000 μmol/L.

mitochondrial ROS [3] = assay: Mitochondrial ROS by flow cytometry in DOCA mice injected with NAD+; format: in vivo, mouse; settings: 100 mg/kg injected in the neck, P>0.05
Protocol: Three to four animals and ˜10,000 myocytes from each animal were tested in each group in flow cytometry (FIG. 8A).

mitochondrial ROS [4] = assay: Mitochondrial ROS by MitoSox Red confocal microscopy in PL-treated cells and DOCA myocytes; format: cell-based, mouse
Protocol: FIG. 6A is a photo showing representative confocal microscopy images of myocytes of 3 groups. Scale bar, 10 μm. Mitochondrial ROS production in response to intracellular NADH was monitored by MitoSox Red with SCNSA cells and myocytes. The control groups were untreated, the pyruvate and lactate (PL) groups were treated with 1 and 10 mmol/L PL buffer, respectively, for 10 minutes, and the NAD-PL groups were incubated with 500 μmol/L NAD^+ for ˜6 hours and then treated with PL buffer for 10 minutes.
FIG. 6C is a photo showing that mitochondrial ROS levels were increased in DOCA (deoxycorticosterone) myopathic mice and reduced by NAD treatment (500 μmol/L). Representative confocal microscopy images of mitochondrial ROS levels were obtained with treatment of myocytes monitored with MitoTracker Green and MitoSox Red. The white scale bar is 20 μm. […]
Mitochondrial ROS production in response to intracellular NADH was monitored by MitoSox Red with SCNSA cells and myocytes (FIGS. 6A and 6B). […]
Mitochondrial ROS levels were increased in DOCA myopathic mice and reduced by NAD^+ treatment (500 μmol/L) (FIG. 6C. Representative confocal microscopy images of mitochondrial ROS levels were obtained with treatment of myocytes monitored with MitoTracker Green and MitoSox Red. The white scale bar is 20 μm. The extremely red cells are dying myocytes that have very high levels of ROS.

cardiac INa = assay: Peak INa of DOCA mouse cardiomyocytes treated with NAD+; format: cell-based; settings: 500 μmol/L
Description: NAD^+ restored INa decreased by mitoROS in PL-treated cells and in DOCA myocytes.

Connexin 43 = Connexin 43 protein level expression in heart tissue of MI mice; format: in vivo, mouse
Description: FIG. 5A is a blot showing Connexin 43 protein level expressions and Glyceraldehyde 3-phosphate dehydrogenase (GAPDH) protein level expressions in heart tissue of Sham, MI mice and MI mice treated with mitoTEMPO (MI tx MT).
FIG. 5B is a bar graph showing Connexin 43/GAPDH protein expression in Sham, MI mice and MI mice treated with mitoTEMPO (MI tx MT).
MI was induced in 12-week old C57BL/6 mice by coronary artery occlusion. Sham-operated mice were used as controls. Two weeks after surgery, MI mice were either given a mitochondria-targeted antioxidant, mitoTEMPO (0.7 mg/kg/day, intraperitoneally), or left untreated for two weeks (Rutledge C A et al. J Am Coll Cardiol 2014; 63:928-934).

[5] = system: cardiac Na+ channel (Nav1.5); assay: Whole-cell patch clamp recording of Na+ currents (INa) in cardiomyocytes isolated from MI mice treated with antioxidant; format: in vivo, mouse
Protocol: (§1) The following materials and methods were used to generate the data described herein. MI was induced in 12-week old C57BL/6 mice by coronary artery occlusion. Sham-operated mice were used as controls. Two weeks following surgery, MI mice were either given a mitochondria-targeted antioxidant, mitoTEMPO (0.7 mg/kg/day, intraperitoneally), or left untreated for two weeks. Cardiomyocytes isolated from the scar border of MI mice or from the left ventricular (LV) anterior wall of sham-operated mice were utilized for whole-cell patch clamp recording of Na^+currents (INa) and for measurements of mitochondrial reactive oxygen species (mitoROS) using flow cytometry. Nav1.5 protein expression levels were determined in the LV from MI and sham-operated mice. Echocardiography was performed 2- and 4-weeks following MI. Oxidized nicotinamide adenine dinculeotide used for experiments was purchased from Sigma-Aldrich, catalog number N1636 “β-Nicotinamide adenine dinucleotide hydrate, ≧99%, Synonyms: NAD^+, β-DPN, β-NAD, Coenzyme 1, Cozymase, DPN, Diphosphopyridine nucleotide, NAD, Nadide” and dissolved in water. MitoQ was used at 10 nM.
MI was induced in 12-week old C57BL/6 mice by coronary artery occlusion. Sham-operated mice were used as controls. […]
Whole cell INa were measured using the whole-cell patch clamp technique in voltage-clamp mode at room temperature.

[6] = system: mitochondrial reactive oxygen species (mitoROS); assay: mitoROS by flow cytometry (MitoSOX Red) in cardiomyocytes of treated MI mice; format: in vivo, mouse
Protocol: The following materials and methods were used to generate the data described herein. MI was induced in 12-week old C57BL/6 mice by coronary artery occlusion. Sham-operated mice were used as controls. Two weeks following surgery, MI mice were either given a mitochondria-targeted antioxidant, mitoTEMPO (0.7 mg/kg/day, intraperitoneally), or left untreated for two weeks. Cardiomyocytes isolated from the scar border of MI mice or from the left ventricular (LV) anterior wall of sham-operated mice were utilized for whole-cell patch clamp recording of Na^+currents (INa) and for measurements of mitochondrial reactive oxygen species (mitoROS) using flow cytometry. Nav1.5 protein expression levels were determined in the LV from MI and sham-operated mice. Echocardiography was performed 2- and 4-weeks following MI. […]
A BD LSR II (BD Biosciences) flow cytometer was used for high-throughput evaluation of mitoROS, mitochondrial volume, and cell survival. […] Separate suspensions were stained with propidium iodide (10 μg/mL) and evaluated at 617 nm to measure for cell integrity. Five thousand gated cells were recorded in each sample. […]

[7] = Echocardiography 2 and 4 weeks following MI; format: in vivo, mouse; settings: MI mice
Protocol: as §1

ROS = ROS density by MitoSox dye in adult mouse cardiomyocytes treated with antimycin A; format: cell-based; settings: MitoQ 1-2 hours pretreatment, 10 nM
Protocol: FIG. 9B is a bar graph showing that Mito Q decreased ROS that was generated by antimycin A. ROS density in adult mouse cardiomyocytes was measured using MitoSox dye. Adult mouse cardiomyocytes were isolated, and MitoQ was applied for 1-2 hours pretreatment.
In addition to MitoTEMP and NAD^+, another mitochondrial-targeted antioxidant, MitoQ, was tested. […] is an antibiotic that induces apoptosis and inhibits the mitochondrial electron transport chain, thereby inducing oxidative stress and generating reactive oxygen species. Because antimycin A is known to generate ROS (for example, increasing superoxide formation), it decreases the sodium channel current (INa). Additionally, antiomycin A causes damage to mitochondrial DNA, lipids, and proteins in cells treated with the antibiotic. MitoSOX Red is a fluorescent mitochondrial probe used to measure ROS production. Mitochondrial ROS production in response to increased antimycin A levels was monitored by MitoSox Red with SCNSA cells and myocytes (FIGS. 9A and 9B).
Isolated adult mouse cardiomyocytes were pretreated with MitoQ.

[8] = rodents treated 0.7 mg/kg/day intraperitoneally after ischemic insult

Question: With antimycin A as the molecule, how does the “peak INa at −30 mV, effect of antimycin A” value ([1]; 5-10 μM, compared with SCN5A alone (untreated)) read?
Answer: decreased

Question: For `NC(=O)c1ccc[n+]([C@@H]2O[C@H](COP(=O)([O-])OP(=O)(O)OC[C@H]3O[C@@H](n4cnc5c(N)ncnc54)[C@H](O)[C@@H]3O)[C@@H](O)[C@H]2O)c1` [NAD^+, β-Nicotinamide adenine dinucleotide hydrate], which “reduced INa in cardiomyopathy of DOCA” value (INa; DOCA mice) is on record?
Answer: corrected

Question: What about the “INa, effect on the sham group” value (INa; sham mice) of the same molecule?
Answer: no effect

Question: And the “inhibition of NADH on cardiac INa, effect of extracellular NAD” value ([2]; 100 μmol/L NADH, NAD from 50 to 1000 μmol/L)?
Answer: reversed the inhibition of NADH on cardiac INa in a dose-dependent manner

Question: What about the “mitochondrial ROS” value (mitochondrial ROS [3]) of the same molecule?
Answer: 1.1±0.1 fold of sham

Question: What about the “mitochondrial ROS levels in DOCA myopathic mice myocytes” value (mitochondrial ROS [4]; 500 μmol/L) of the same molecule?
Answer: reduced

Question: What about the “MitoROS level increased by PL” value (mitochondrial ROS [4]; 500 μmol/L NAD+ for ~6 hours, then PL buffer 10 minutes) of the same molecule?
Answer: Decreased

Question: And the “peak INa of DOCA mouse cardiomyocytes” value (cardiac INa)?
Answer: restored INa to the sham level

Question: Which “effect on connexin 43 downregulation in MI” value (Connexin 43; MI mice) does the source give for `CC1(C)CC(NC(=O)C[P+](c2ccccc2)(c2ccccc2)c2ccccc2)CC(C)(C)N1[O]` [mitoTEMPO, (2-(2,2,6,6-Tetramethylpiperidin-1-oxyl-4-ylamino)-2-oxoethyl)triphenylphosphonium chloride monohydrate] here?
Answer: no effect

Question: What about the “Connexin 43 level, of sham levels” value (Connexin 43; treated MI mice, untreated MI 56%, P<0.01 vs sham, ns vs MI) of the same molecule?
Answer: 41%

Question: And the “INa reduced by NADH, effect of antioxidant” value ([2]; SCN5A + 100 μM NADH + 5 μM mitoTEMPO)?
Answer: restored

Question: What about the “peak INa density” value ([5]; MI mice, 0.7 mg/kg/day intraperitoneally for two weeks, isolated LV cardiomyocytes, sham −24.0±1.8, untreated MI −14.3±1.4) of the same molecule?
Answer: −19.4±0.8 pA/pF

Question: What about the “INa activity, effect in words” value [5, 8] of the same molecule?
Answer: statistically significant increase

Question: What about the mitoROS level ([6]; MI mice, 0.7 mg/kg/day intraperitoneally for two weeks, scar border cardiomyocytes, untreated MI 1.5±0.2 fold) of the same molecule?
Answer: 1.2±0.2 fold

Question: And the “mitochondrial ROS, effect in words” value [6, 8]?
Answer: statistically significant decrease

Question: What about the “echocardiography parameters, untreated vs treated groups” value [7] of the same molecule?
Answer: no significant differences

Question: With `COC1=C(OC)C(=O)C(CCCCCCCCCC[P+](c2ccccc2)(c2ccccc2)c2ccccc2)=C(C)C1=O` [MitoQ, 10-(6′-Ubiquinolyl)decylthriphenylphosphonium bromide] as the molecule, how does the “INa decreased by antimycin A, effect of antioxidant” value ([1]; 10 nM, 1-2 hour preincubation, antimycin A 5-10 μM, peak INa at −30 mV, room temperature) read?
Answer: restored INa

Question: And the “ROS (MitoSOX density) generated by antimycin A” value (ROS)?
Answer: elevated MitoSOX density

Question: What about the “ROS (MitoSOX density) generated by antimycin A” value (ROS; listed as Mito Q) of the same molecule?
Answer: decreased ROS
